Assay results taken from article PMC10326435, “Antiprotozoal activity of natural products from Nigerien plants used in folk medicine” (Frontiers in Pharmacology, 2023).
Read-outs that look alike come from different tables or passages of the source.

What was measured:
[1] = test system: T. b. rhodesiense (STIB900, trypomastigotes); test: in vitro activity on T. b. rhodesiense, serial dilution assay; assay type: cell-based, Trypanosoma brucei rhodesiense; details: for IC50: 72 h exposure, means of two independent assays ± deviation from the mean, read-out: IC50 T. b. rhodesiense; for Selectivity index (SI) T. b. rhodesiense: SI = IC50 cytotoxicity (L6)/IC50 in T. b. rhodesiense
Method: (§1) The in vitro activity was assessed on T. b. rhodesiense (STIB900, trypomastigotes), T. cruzi (Tulahuen C2C4, intracellular amastigotes), L. donovani (MHOM-ET-67/L82, axenically grown amastigotes), P. falciparum (NF54, intraerythrocytic), and L6 cells (ATCC, CRL-1458™, rat skeletal myoblasts) as previously described ([Bernal et al., 2020]). The activities were determined in serial dilution assays with 72 h compound exposure, respectively 96 h for intracellular T. cruzi. Results are expressed in µg/mL for extracts and in µM for pure compounds. The IC50 values were determined for the compounds only when they were <50 µM.

[2] = test system: T. cruzi (Tulahuen C2C4, intracellular amastigotes); test: in vitro activity on T. cruzi, serial dilution assay; assay type: cell-based, Trypanosoma cruzi; details: for IC50: 96 h exposure, means of two independent assays ± deviation from the mean, read-out: IC50 T. cruzi; for Selectivity index (SI) T. cruzi: SI = IC50 cytotoxicity (L6)/IC50 in T. cruzi
Method: as §1

[3] = test system: L. donovani (MHOM-ET-67/L82, axenically grown amastigotes); test: in vitro activity on L. donovani, serial dilution assay; assay type: cell-based, Leishmania donovani; details: for IC50: axenic amastigotes, 72 h exposure, means of two independent assays ± deviation from the mean, read-out: IC50 L. donovani; for Selectivity index (SI) L. donovani: SI = IC50 cytotoxicity (L6)/IC50 in L. donovani
Method: as §1

[4] = test system: P. falciparum (NF54, intraerythrocytic); test: in vitro activity on P. falciparum, serial dilution assay; assay type: cell-based, Plasmodium falciparum; details: for IC50: 72 h exposure, means of two independent assays ± deviation from the mean, read-out: IC50 P. falciparum; for Selectivity index (SI) P. falciparum: SI = IC50 cytotoxicity (L6)/IC50 in P. falciparum
Method: as §1

[5] = cytotoxicity in L6 cells; assay type: cell-based, rat; details: rat
Method: as §1

[6] = test system: P. falciparum; details: cited from earlier work
[7] = test system: intracellular L. donovani amastigotes in mouse macrophages; test: intracellular L. donovani amastigotes in mouse macrophages; assay type: cell-based, Leishmania donovani; details: not active, read-out: IC50 against intracellular L. donovani amastigotes
Description: The antiparasitic activity of myricitrin (1) and quercitrin (2) was already described in the literature ([Muzitano et al., 2006]; [Larit et al., 2021]), and therefore it was not evaluated in the present study. Compound 3 was the only compound evaluated from the extract of C. sieberiana and was compared to the activity of miltefosine due to structural similarities. […] Among the cyclopeptide alkaloids isolated from the DCM extract of Z. mauritiana (4, 5, 7–12), a methoxy group at C-13 (10–12) seems to be favorable for the antiplasmodial activity. In addition, the indole group at C-29 present in compounds 9 and 12 seems to be important for the activity against T. b. rhodesiense. […] This is the first report on the antileishmanial and antitrypanosomal activities of these compounds. […] This is in agreement with our study. Among the triterpene derivatives isolated from the DCM root bark extract of Z. mauritiana (6, 13–19), betulinic acid (19), an already well-studied compound, was not tested in this work. […] The triterpenoids tested in the present work (Table 3) were mainly active against L. donovani and presented a good selectivity index. The substitution with an epoxy group in compound 13 compared to compound 6 enhanced the activity toward L. donovani and P. falciparum but not against T. cruzi. […]

[8] = test system: L6 cells (ATCC, CRL-1458, rat skeletal myoblasts); test: cytotoxicity in L6 cells; assay type: cell-based; details: rat, 72 h
Method: as §1

[9] = test system: T. b. rhodesiense; details: previously reported; ref Cretton et al., 2015; read-out: IC50 against T. b. rhodesiense; cited from earlier work
[10] = test system: Leishmania spp.; design: method as in Rocha et al., 2022; details: no significant activity; ref Rocha et al., 2022; read-out: IC50 against Leishmania spp.; cited from earlier work
[11] = test system: T. cruzi; details: read-out: IC50 against T. cruzi, cited from earlier work
[12] = test system: L. amazonensis; design: method as in Costa et al., 2018; details: ref Costa et al., 2018; read-out: IC50 against L. amazonensis; cited from earlier work
[13] = Trypanosoma cruzi, TULAHUEN, 96 h
[14] = Plasmodium falciparum, NF54, 72 h
[15] = already reported, ref Suksamrarn et al., 2006, Panseeta et al., 2011, Tuenter et al., 2017, read-out: antiplasmodial activity IC50
[16] = L6 cells (rat skeletal myoblasts, ATCC CRL-1458), rat skeletal myoblast (L6 cells), 72 h exposure, means of two independent assays ± deviation from the mean, read-out: IC50 Cytotoxicity

Structure (SMILES): CN[C@@H](C)C(=O)N[C@H](C(=O)N1CC[C@@H]2Oc3ccc(cc3)/C=C\NC(=O)[C@H](Cc3ccccc3)NC(=O)[C@H]21)C(C)C [Compound 4, mauritine F]
- IC50 ([1]; Trypanosoma brucei, 72 h): > 50 µM
- IC50 [2, 13]: > 50 µM
- IC50 ([3]; Leishmania donovani, 72 h): > 50 µM
- IC50 [4, 14]: 24.3 ± 4.5 µM
- Selectivity index (SI) P. falciparum [4]: > 5.5
- IC50 at 72 h ([5]; IC50 Cytotoxicity): > 50 µM
- IC50 [6, 15]: 34.2 µM

Structure (SMILES): C=C(C)[C@@H]1CC[C@]2(C(=O)O)CC[C@]3(C)[C@H](CC[C@@H]4[C@@]5(C)[C@@H](C(=O)O)[C@H](O)C(C)(C)[C@@H]5CC[C@]43C)[C@@H]12 [Compound 6, ceanothic acid]
- IC50 ([1]; Trypanosoma brucei, 72 h): > 50 µM
- IC50 [2, 13]: > 50 µM
- IC50 ([3]; Leishmania donovani, 72 h): 29 ± 3.3 µM
- Selectivity index (SI) L. donovani [3]: > 1.7
- IC50 [4, 14]: > 50 µM
- IC50 at 72 h ([5]; IC50 Cytotoxicity): > 50 µM
- IC50 [6, 15]: > 20 µM

Structure (SMILES): CN[C@H](C)C(=O)N[C@H](C(=O)N1CC[C@@H]2Oc3ccc(OC)c(c3)/C=C\NC(=O)[C@H](Cc3ccccc3)NC(=O)[C@H]21)C(C)C [Compound 11, N-demethylamphibine H]
- IC50 ([1]; Trypanosoma brucei, 72 h): > 50 µM
- IC50 [2, 13]: > 50 µM
- IC50 ([3]; Leishmania donovani, 72 h): 44.8 ± 3.4 µM
- Selectivity index (SI) L. donovani [3]: > 1.5
- IC50 [4, 14]: 14.7 ± 4.2 µM
- Selectivity index (SI) P. falciparum [4]: > 5.4
- IC50 at 72 h ([5]; IC50 Cytotoxicity): > 50 µM
- IC50 [6, 15]: 3.6 µM

Structure (SMILES): CCC(C)[C@@H]1NC(=O)[C@@H]2[C@H](CCN2C(=O)[C@H](Cc2c[nH]c3ccccc23)NC(=O)[C@H](CC(C)C)NC)Oc2ccc(OC)c(c2)/C=C\NC1=O (stereo partly shown) [Compound 12, mauritine M]
- Selectivity index (SI) T. b. rhodesiense [1]: 5.0
- IC50 ([1]; Trypanosoma brucei, 72 h): 6.4 ± 2 µM
- Selectivity index (SI) T. cruzi [2]: 2.0
- IC50 [2, 13]: 15.7 ± 1.1 µM
- IC50 ([3]; Leishmania donovani, 72 h): > 50 µM
- IC50 [4, 14]: 2.6 ± 0.2 µM
- Selectivity index (SI) P. falciparum [4]: 12.2
- IC50 at 72 h ([5]; IC50 Cytotoxicity): 31.8 ± 7.6 µM
- IC50 [6, 15]: 3.7 µM

Structure (SMILES): C=C(C)C1CCC2(C(=O)O)CCC3(C)C(CCC4C5(C)C(C(=O)O)C(OC(=O)c6ccccc6)C(C)(C)C5CCC43C)C12 [Compound 15, (1R, 3S)-3-O-benzoyl ceanothic acid]
- IC50 [1]: 11.7 ± 1 µM
- Selectivity index (SI) T. b. rhodesiense [1]: 1.4
- Selectivity index (SI) T. cruzi [2]: 0.4
- IC50 [2, 13]: 43.8 ± 8.4 µM
- Selectivity index (SI) L. donovani [3]: 32.8
- IC50 [3]: 0.5 ± 0.2 µM
- IC50 [4, 14]: 10.1 ± 0.6 µM
- Selectivity index (SI) P. falciparum [4]: 1.6
- IC50 at 72 h ([5]; IC50 Cytotoxicity): 16.4 ± 5.8 µM
- IC50 ([7]; Leishmania donovani, Macrophage): > 50 µM

Structure (SMILES): C=C(C)C1CCC2(C(=O)O)CCC3(C)C(CCC4C5(C)C(C(=O)O)C(OC(=O)c6ccccc6)C(C)(C)C5CCC43C)C12 [Compound 16, (1S, 3S)-3-O-benzoyl ceanothic acid]
- IC50 [1]: 30.6 ± 2.8 µM
- Selectivity index (SI) T. b. rhodesiense [1]: 1.1
- IC50 [2]: > 50 µM
- Selectivity index (SI) L. donovani [3]: 17.9
- IC50 [3]: 1.8 ± 0.7 µM
- IC50 [4]: 15.3 ± 1.5 µM
- Selectivity index (SI) P. falciparum [4]: 2.1
- IC50 [8]: 32.3 ± 5.1 µM
- IC50 [7]: > 50 µM

Structure (SMILES): C=C(C)[C@@H]1CC[C@]2(C(=O)O)CC[C@]3(C)[C@H](CC[C@@H]4[C@@]5(C)CC[C@H](O)C(C)(C)[C@@H]5CC[C@]43C)[C@@H]12 [Compound 19, betulinic acid]
- IC50 ([6]; previously reported, ref Cretton et al., 2015, read-out: IC50 against P. falciparum): 19 µM
- IC50 [9]: 4.2 µM
- IC50 [10]: > 25 µM
- IC50 ([11]; no significant activity, ref Rocha et al., 2022): > 25 µM

Structure (SMILES): CC(C)=CCC1=C(O)C(=O)c2c(O)ccc(O)c2C1=O [Compound 20]
- Selectivity index (SI) T. b. rhodesiense [1]: 2.0
- IC50 ([1]; Trypanosoma brucei, 72 h): 6.9 ± 1.3 µM
- Selectivity index (SI) T. cruzi [2]: 0.5
- IC50 [2, 13]: 27.4 ± 1.3 µM
- IC50 ([3]; Leishmania donovani, 72 h): 1.9 ± 0.4 µM
- Selectivity index (SI) L. donovani [3]: 7.4
- IC50 [4, 14]: 45 ± 4.6 µM
- Selectivity index (SI) P. falciparum [4]: 0.3
- IC50 at 72 h [5, 16]: 14 ± 0.4 µM
- IC50 ([6]; previously evaluated, ref Kopa et al., 2014, read-out: antiplasmodial activity IC50): 3 µM

Structure (SMILES): CC(C)=CC[C@@]12O[C@@H]1C(=O)c1c(O)ccc(O[C@@H]3O[C@H](CO)[C@@H](O)[C@H](O)[C@H]3O)c1C2=O [Compound 26]
- Selectivity index (SI) T. b. rhodesiense [1]: 1.2
- IC50 ([1]; Trypanosoma brucei, 72 h): 9.9 ± 4.5 µM
- Selectivity index (SI) T. cruzi [2]: 0.3
- IC50 [2, 13]: 39.2 ± 5 µM
- IC50 ([3]; Leishmania donovani, 72 h): 3.5 ± 0.5 µM
- Selectivity index (SI) L. donovani [3]: 3.5
- IC50 [4, 14]: 9 ± 5.4 µM
- Selectivity index (SI) P. falciparum [4]: 1.4
- IC50 at 72 h [5, 16]: 12.2 ± 1.8 µM

Structure (SMILES): CC1(C)C=CC2=C(O1)C(=O)c1c(O)ccc(O[C@@H]3O[C@H](CO)[C@@H](O)[C@H](O)[C@H]3O)c1C2=O [Compound 29]
- Selectivity index (SI) T. b. rhodesiense [1]: 3.2
- IC50 ([1]; Trypanosoma brucei, 72 h): 12.5 ± 1.6 µM
- IC50 [2, 13]: > 50 µM
- IC50 ([3]; Leishmania donovani, 72 h): 11.4 ± 2.3 µM
- Selectivity index (SI) L. donovani [3]: 3.5
- IC50 [4, 14]: > 50 µM
- IC50 at 72 h [5, 16]: 40.3 ± 0.7 µM
- IC50 ([11]; ref Costa et al., 2018): 7.6 µM
- IC50 [12]: 12.6 µM

Structure (SMILES): COc1cc([C@@H]2OC[C@@H]3[C@H]2CO[C@H]3c2cc(OC)c(O)c(OC)c2)cc(OC)c1O [Compound 30]
- Selectivity index (SI) T. b. rhodesiense [1]: 0.6
- IC50 ([1]; Trypanosoma brucei, 72 h): 20.2 ± 1.8 µM
- Selectivity index (SI) T. cruzi [2]: 0.4
- IC50 [2, 13]: 29.2 ± 11.4 µM
- IC50 ([3]; Leishmania donovani, 72 h): 13.4 ± 2.3 µM
- Selectivity index (SI) L. donovani [3]: 1.0
- IC50 [4, 14]: 22.6 ± 2 µM
- Selectivity index (SI) P. falciparum [4]: 0.6
- IC50 at 72 h ([5]; IC50 Cytotoxicity): 13 ± 1.7 µM
